Data taken from paper PMC7797697 (Theranostics, 2021).

Experiments:
[1] = test system: MDA-MB-231 cells; assay: High-content epigenetic inhibitor screen, quantification of living cells; assay type: cell-based, human; settings: 72 h
Description: (§1) HeLa, MCF-7 and MDA-MB-231 cell lines were purchased from the American Type Culture Collection. MCF-10A, T-47D, PANC-1, A549, HCT-15, Caco-2, SMMC-7721, SH-SY5Y, HUVEC and PC-3 cell lines were obtained from the Chinese Academy of Medical Sciences. MEF was isolated from pregnant mice at 14‒16 days of pregnancy. Primary breast cancer cells were isolated from breast cancer patients. All media including Dulbecco Modified Eagle Medium (DMEM), RPMI 1640 Medium and DMEM/Nutrient Mixture F-12 were supplemented with 10% fetal bovine serum (FBS), 100 units/mL penicillin, and […] streptomycin (Gibco, Waltham, MA, USA). Cells were cultured in a humidified incubator equilibrated with 5% CO2 at 37 °C. Cells were treated for 24-72 h in adherent conditions with compounds from an epigenetic small molecule inhibitor library (L1200, Topscience, Shanghai, China).
(§2) Statistical analyses of all data were performed using GraphPad Prism (version 8.0, Graph Pad Software Inc., San Diego, CA, USA). All the data were analyzed by Student's t-test or one-way ANOVA. The Z-Score was chosen to evaluate the results and experimental deviation. Quantitative data are presented as the mean ± SD. The asterisk (*) denotes statistically significant difference (P < 0.05). IC50 was calculated using a four-parameter fit with variable slope in GraphPad Prism.
To identify potential anti-tumor inhibitors, we screened an epigenetic small molecule inhibitor library for anti-tumor activity in breast cancer cells. […] The selection strategy mainly comprised three stages, in which different concentrations (high to low) of inhibitors screened with a high-content analysis instrument were identified using cancer cell lines in a 96-well plate format (Figure 1A). For the first step, we treated cells with a high concentration of compounds to exclude compounds ineffective in killing cancer cells. MDA-MB-231 cells, a human breast cancer cell line, were treated with 167 epigenetic compounds (30 μM each) for 48 h, and then analyzed by high-content analysis, where changes in cell morphology relative to the control (dimethyl sulfoxide, DMSO) would indicate modulation of cancer cells by compound treatment. […] At the second step, we treated the cells with the 60 compounds at a median concentration (3 μM) for 72 h to screen for inhibitors that can kill cancer cells with high efficiency.

[2] = test system: HUVEC; assay: CCK8 assay IC50; assay type: cell-based, human; settings: 72 h, normal cells
Procedure: (§3) Cell viability was then detected using a CCK8 assay (MedChemExpress, USA) according to the manufacturer's instructions.
as §2

[3] = test system: MDA-MB-231; assay: CCK8 assay IC50; assay type: cell-based, human; settings: Homo sapiens; MDA-MB-231, 72 h, CCK8, value of the text
Procedure: as §3, §2

[4] = test system: Primary breast tumor cells; assay: CCK8 assay IC50; assay type: cell-based, human; settings: Homo sapiens, breast cancer, 72 h
Description: as §1, §3
as §2, with “The asterisk (*) denotes statistically significant difference (P < 0.05).” left out

[5] = test system: histone deacetylase; assay: Western blot of acetylated histone H3 and acetylated α-tubulin; assay type: cell-based, human; settings: MDA-MB-231 cells, 100 or 200 nM, 24-72 h
Procedure: Total protein was assessed by sodium dodecyl sulfate-polyacrylamide gel electrophoresis using 10% or 15% gels, followed by immunoblotting with the following antibodies. Anti-glyceraldehyde 3-phosphate dehydrogenase (GAPDH) antibody (AC002) was purchased from ABclonal Technology (Woburn, MA, USA); anti-PLCβ3 antibody (14247) was purchased from Cell Signaling Technology (Danvers, MA, USA); anti-β-actin antibody (ab8226) and anti-histone H3 antibody (ab1791) were purchased from Abcam (Cambridge, UK); anti-ace tubulin antibody (66200-1-lg) was purchased from Proteintech Group (Rosemont, IL, USA); anti-γ-catenin antibody was purchased from BD Biosciences (Franklin Lakes, NJ, USA). The GAPDH and β-actin content were analyzed as the loading control.

[6] = test system: MDA-MB-231, T-47D, and primary breast tumor cells; assay: Colony formation assay; assay type: cell-based, human; settings: crystal violet staining
Procedure: The colony-formation ability of MDA-MB-231 and T-47D cells were measured by the clonogenic assay. […] After treatment, cells were digested and suspended in culture medium at a density of 5 × 10^3 cells/ml. Cells (2,000 cells per well) were seeded into 6-well plates and cultured for two weeks. The, cells were fixed with 4% formaldehyde and washed with phosphate-buffered saline (PBS) and stained with crystal violet for half an hour. Images of colonies were captured using a light microscope.

[7] = test system: breast cancer cells; assay: Transwell cell invasion assay; assay type: cell-based, human; settings: matrigel transwell, P < 0.05
Procedure: Transwell chamber filters (BD) were coated with Matrigel diluted (1:10) in serum-free medium. […] After treatment, cells were digested and suspended in serum-free media. Cells (8,000 cells per well) were seeded into the upper chamber of the transwell chambers, and the chambers were transferred into 24-well plates containing 500 μl culture medium per well. After 20 h of incubation, cells in the upper chamber were fixed with 4% formaldehyde, washed with PBS, and stained with crystal violet for half an hour. Images of invasive cells were captured using a light microscope.

[8] = test system: MDA-MB-231 cells; assay: Intracellular calcium measurement (Fluo-4-AM); assay type: cell-based, human; settings: 100 nM or 200 nM for 24 h
Procedure: After treatment, the cells were digested and seeded in 96-well black plates (Corning Costar, Cambridge, MA, USA) and cultured for 20 h. For measurement of [Ca^2+]i, the cells were labeled with Fluo-4-AM in serum-free medium for half an hour at room temperature. After washing with Dulbecco's Phosphate Buffered Saline (D-PBS), cells were overlaid in Hank's balanced salt solution (5.4 mM KCl, 1 mM MgCl2, 20 mM hydroxyethyl piperazineethanesulfonic acid (HEPES), 120 mM NaCl, 10 mM glucose, 0.2 mM Ethylenebis(oxyethylenenitrilo)tetraacetic acid (EGTA)). Continuous fluorescence intensity was detected after thrombin was added as a calcium agonist by an automated sampler. Response over baseline was assessed as a relative measure of [Ca^2+]i.
As previously stated, studies have shown that the Ca^2+ signals can modulate cancer progression by regulating migration, proliferation, cell stress, and apoptosis.

[9] = test system: primary breast cancer cells; assay: Intracellular calcium measurement (Fluo-4-AM); assay type: cell-based, human; settings: thrombin stimulation
[10] = test system: Gαq, PLCβ3, PMCA1 and PMCA4b in MDA-MB-231 cells; assay: Expression of calcium influx and efflux markers (Western blot, RT-qPCR); assay type: cell-based, human
Procedure: Reverse transcription was performed using the RevertAid First Strand cDNA Synthesis Kit ([…]) according to the manufacturer's instructions. The primers for the detection of target mRNA are shown in Table S2. β-actin was used as an internal reference. The relative expression of target genes was calculated by the 2^-ΔΔCt method.

[11] = test system: RGS2 promoter; assay: qChIP of H3 acetylation; assay type: cell-based; settings: MDA-MB-231, T-47D and 4T1 cells
Procedure: Briefly, the cells were cross-linked with 1% formaldehyde, sonicated, pre-cleared, and incubated with 4 μg of Ace-H3 antibody or IgG, which was followed by the addition of Dynabeads Protein G. Next, the beads were washed with high- and low-salt-concentration buffers, and DNA was eluted and purified using the QIAquick PCR Purification Kit. The amount of the DNA template was analyzed by qPCR using primers specific for five promoter regions.

## CN(C)Cc1c(C(=O)NCCOc2ccc(C(=O)NO)cc2)oc2ccccc12 [PCI-24781]
[1]; 0.15 μM
  cell death: ~ 20%
[1]; 3 μM
  effect on cell survival: discernible effects on cell survival
[2]; Homo sapiens
  IC50: 4200 nM
[2]
  IC50: 4170 nM
[3]
  IC50: 663 nM
[4]
  IC50: 876 nM
[5]
  acetylated histone H3 and acetylated α-tubulin levels: time-dependent and dose-dependent accumulation of acetylated histone H3 (H3) and acetylated α-tubulin
[6]
  colony formation: decreased colony formation
[7]
  invasive capacity: significant reduction in the invasive capacity
[8]
  influx of intracellular calcium ions induced by thrombin, ionomycin, and carbachol: completely inhibited
[9]
  amplitude of [Ca^2+]i oscillations: significant decrease in the amplitude
[10]; MDA-MB-231, RT-qPCR
  expression levels of PMCA1 and PMCA4b: not affected
[10]; MDA-MB-231, Western blot and RT-qPCR
  expression levels of Gαq and PLCβ3: significantly decreased
[11]
  H3 acetylation at RGS2 promoter regions (qChIP): strong binding to RGS2 #2 and #3 promoter regions of H3 acetylation
